Assay: Plasma metabolite profiling (GC-MS, LC-MS, SPE-LC-MS) of rats dosed once daily over 28 days; treatment ratios versus untreated control
Format: in vivo, rat
Settings: male rats; for 5-Oxoproline, plasma metabolite ratio versus control / Alanine, plasma metabolite ratio versus control / Arginine (second line of the table), plasma metabolite ratio versus control / Arginine, plasma metabolite ratio versus control / Citrulline, plasma metabolite ratio versus control / Glutamine, plasma metabolite ratio versus control / Proline, plasma metabolite ratio versus control / Tyrosine, plasma metabolite ratio versus control: high dose; for Creatinine, ratio versus control: plasma, Table 12a
Procedure, shortened: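 Male and female rats (5/sex/group) dosed once daily for 28 days; fasted anaesthetized animals bled retro-orbitally (EDTA plasma) on days 7, 14, 28, stored −80 °C under N2. Polar and lipid fractions profiled by GC-MS (derivatized), LC-MS/MRM; steroids by online SPE-LC-MS. Pool-normalized data; treatment ratios vs sex-matched controls, Welch test p-values.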

## CC1(C)C(C(Cl)Cl)C2(Cl)C(Cl)C(Cl)C1(Cl)C2(Cl)Cl (stereo not drawn) [Toxaphene]
Day 7 (m7)
  5-Oxoproline, plasma metabolite ratio versus control: 0.98
  Alanine, plasma metabolite ratio versus control: 0.82
  Arginine (second line of the table), plasma metabolite ratio versus control: 0.87
  Arginine, plasma metabolite ratio versus control: 0.96
  Citrulline, plasma metabolite ratio versus control: 0.87
  Glutamine, plasma metabolite ratio versus control: 0.89
  Proline, plasma metabolite ratio versus control: 0.82
  Tyrosine, plasma metabolite ratio versus control: 0.86
Day 14 (m14)
  5-Oxoproline, plasma metabolite ratio versus control: 0.87
  Alanine, plasma metabolite ratio versus control: 0.87
  Arginine (second line of the table), plasma metabolite ratio versus control: 0.79
  Arginine, plasma metabolite ratio versus control: 0.78
  Citrulline, plasma metabolite ratio versus control: 1.07
  Glutamine, plasma metabolite ratio versus control: 0.77
  Proline, plasma metabolite ratio versus control: 0.86
  Tyrosine, plasma metabolite ratio versus control: 0.87
Day 28 (m28)
  5-Oxoproline, plasma metabolite ratio versus control: 0.81
  Alanine, plasma metabolite ratio versus control: 0.83
  Arginine (second line of the table), plasma metabolite ratio versus control: 0.84
  Arginine, plasma metabolite ratio versus control: 0.77
  Citrulline, plasma metabolite ratio versus control: 1.10
  Glutamine, plasma metabolite ratio versus control: 0.81
  Proline, plasma metabolite ratio versus control: 0.88
  Tyrosine, plasma metabolite ratio versus control: 0.79
Day 7, high dose
  Creatinine, ratio versus control: 1.41
Day 14, high dose
  Creatinine, ratio versus control: 1.45
Day 28, high dose
  Creatinine, ratio versus control: 1.37

— US20150031572A1, “MEANS AND METHODS FOR ASSESSING NEURONAL TOXICITY” (priority 2012, published 2015)
